From US9248171B2, “Immunogenic peptides and their use in transplantation” (IMCYSE SA, priority 2008, dated 2016)
Marks after values point to notes of the source that are not given here.

Tests used:
[1] = tested on: Bm12 mouse skin allograft; experiment: Rejection of Bm12 skin graft (MHC class II mismatch) in pre-immunized C57B1/6 mice; assay type: in vivo; details: 3 subcutaneous administrations in CFA/IFA at fortnight intervals
Text: The Bm12 mice constitute a variant of the C57B1/6 mice in which a spontaneous mutation has occurred in the I-Ab locus. This mutation consists of 3 amino acid substitutions in a stretch of 5 amino acids and thereby generates a limited MHC class II mismatch between Bm12 mice and C57B1/6 wild type mice. This mismatch is nevertheless sufficient as to elicit rejection of Bm12 mouse skin allograft.
The 3 substituted amino acids are Ile67Phe, Arg70Gln and Thr71Lys located in the third hypervariable region of the beta chain. A synthetic peptide encompassing these residues was made and has the sequence: PEFLEQKRA (SEQ ID. NO: 10). This peptide was modified according to the invention by incorporation of a thioreductase consensus sequence, resulting in the exemplary immunogenic peptide CGHCPEFLEQKRA (SEQ ID. NO: 11).
Cytotoxic CD4+ regulatory T cells towards the modified peptide of SEQ ID. NO: 11 are elicited in C57B1/6 mice by 3 subcutaneous administration of the peptide in CFA/IFA given at fortnight intervals. Such mice are then grafted with the skin of Bm12 mice.

[2] = tested on: male C57B1/6 skin allograft; experiment: Skin graft rejection, male skin onto pre-immunized syngeneic female mice (naive mice); assay type: in vivo, C57B1/6 mice; details: for Rejection rate Day 10 / Rejection rate Day 20: 3 SC injections, rejected mice/mice, rejection = more than 50% of graft surface necrotic; for Effect of pre-immunization on skin graft rejection (in words): pre-immunization in either CFA/IFA or alum
Experimental: One of the most studied models of graft rejection is skin grafting between syngeneic animals of different sex. Thus, the […] contains a number of genes, in particular the Dby gene, which encodes a minor histocompatibility antigen that elicits strong CD4+ T cell activation and chronic rejection in females. […] T cell epitopes from the Dby antigen have been described and selected as shown in Example 1 (peptide of SEQ ID. NO: 5). A synthetic peptide of SEQ ID. NO: 6 was prepared. Groups of 3 female C57B1/6 mice (H-2b haplotype) were made for testing the capacity of modified peptides of SEQ ID NO:1 to elicit tolerance to the skin allograft. Where applicable, pre-immunization was carried out by 3 subcutaneous injections of peptides containing either the natural epitope or its modified counterpart. Injections were made at fortnight intervals in either CFA/IFA or alum. Groups were therefore as follows: • Group 1: skin allograft without preimmunization • Group 2: skin autograft • Group 3: preimmunization with peptide of SEQ ID. NO: 6 emulsified in CFA (first immunization) and IFA for second and third immunization) • Group 4: same as in Group 3, but with alum as an adjuvant • Group 5: same as in Group 3, but using the natural peptide of SEQ ID. NO: 5 All these mice, except for Group 2 mice, received a male C57B1/6 skin allograft of 1 cm2, either directly (Group 1) or 2 weeks after the last immunization for Groups 3, 4 and 5. Group 2 mice received and autograft. Rejection rate was evaluated at day 10 and 20 and judged effective if more than 50% of the graft surface was necrotic.

[3] = tested on: APC (antigen-presenting cells); experiment: Apoptosis of peptide-loaded APC (Annexin V binding) induced by CD4+ T cells from immunized mice (Dby peptides); assay type: cell-based, C57B1/6 mice; details: 10 μg peptide SC in CFA then IFA; APC loaded with SEQ ID. NO: 5 or SEQ ID. NO: 6
Experimental: Groups of C57BL/6 female mice were immunized with 10 μg of peptide of SEQ ID. NO: 6 emulsified in CFA (complete Freund's adjuvant) for the first SC (subcutaneous) injection and in IFA (incomplete Freund's adjuvant) for the two subsequent immunizations. The spleen of such mice was retrieved 10 days after the last immunization and CD4+ T cells were obtained by cell sorting using magnetic beads.
These CD4+ T cells were assayed in vitro for their capacity to induce apoptosis of APC (antigen-presenting cells). Thus, spleen cells of naïve C57B1/6 mice were deprived of CD4+ T cells by magnetic bead sorting and used as APC. Such APC were loaded with peptides of either SEQ ID. NO: 5 or of SEQ ID. NO: 6 by incubation for 16 h at room temperature. The cells were then washed to eliminate residual free peptides.

[4] = tested on: heterotopic male heart transplant; experiment: Heterotopic male heart transplant in pre-immunized syngeneic female mice; assay type: in vivo, C57B1/6 mice; details: 3 subcutaneous injections at fortnight intervals in CFA/IFA
Text: To establish the proof of concept that cytolytic regulatory CD4+ T cells of the present invention can prevent rejection of a vascularized organ, the model of heterotopic heart transplantation is used. This method is well known in the art, as described for instance in Kadner A et al, European Journal of Cardio-thoracic Surgery (2000) 17: 474-481. Briefly, the method consists in abdominal implantation of the heart in a non-working setting, namely the heart is vascularized but not supporting the circulation. This allows long-term follow-up of the graft and multiple biopsies without killing the experimental animal.
Hearts from C57BL/6 males are grafted using such technique in the abdomen of syngeneic females. The rejection process, which is mediated by expression of H-Y-derived antigens in both MHC class I and MHC class II determinants, is mainly due to the circulation of recipient's specific CD4+ T cells that are activated by recognition of alloantigen-derived peptides by graft endothelial cells. Such CD4+ T cells produce IL-2 and IFN-gamma, driving more inflammation and providing help for the maturation of specific CD8+ T cells.
C57B1/6 female mice are pre-immunized before receiving the male allograft with peptides of either SEQ ID NO:5, SEQ ID NO:6 or a sham peptide. This is carried out by 3 subcutaneous injections of peptides made at fortnight intervals in either CFA/IFA. Thereafter, all mice receive a heterotopic male heart transplant.

Sequence	Rejection of Bm12 skin graft after preimmunization [1]	Rejection rate Day 10 ([2]; pre-immunization in CFA/IFA)	Rejection rate Day 20 ([2]; pre-immunization in CFA/IFA)	Rejection rate Day 10 ([2]; pre-immunization in alum)	Rejection rate Day 20 ([2]; pre-immunization in alum)	Effect of pre-immunization on skin graft rejection (in words) [2]	APC apoptosis (surface binding of Annexin V) induced by CD4+ T cells of mice immunized with the peptide [3]	Graft findings (cellular infiltration, endothelitis, chronic vascular lesions) [4]	Outcome of transplanted heart after pre-immunization [4]
CGHCPEFLEQKRA (redox motif + mutated version of I-Ab locus) [SEQ ID. NO: 11]	reject the B12m graft unless they are preimmunized with the peptide of SEQ ID. NO: 11	–	–	–	–	–	–	–	–
CHGCFNSNRANSS (redox motif + T cell epitope of Dby antigen) [SEQ ID. NO: 6]	–	0/3	0/3	0/3	0/3	fully prevents graft rejection	induced into apoptosis	absence of cellular infiltration, of signs of endothelitis and of chronic vascular lesions	tolerate the graft
FNSNRANSS (T cell epitope of Dby antigen) [SEQ ID. NO: 5, reference compound]	–	2/3	2/3**	–	–	accelerates the rejection	did not induce any significant degree of APC apoptosis	–	show rejection of the transplanted heart
